Data: patent publication US9717714B2, “Spirocyclic CETP inhibitors” (Merck Sharp & Dohme Corp., priority 2012, dated 2017)
pIC50: −log10 of the molar value.

Biological target: endogenous CETP from serum (Homo sapiens (Human), UniProt P11597)
Assay: RTA assay in 95% human serum (CETP-catalyzed CE and TG transfer, endogenous CETP)
Format: biochemical
Settings: 95% human serum; read-out: RTA (95% HS)
Excerpt: In Vitro Radioactive Assays of CETP-Catalyzed CE and TG Transfer (RTA Assay)
Reagents and sources are: [3H] cholesteryl oleate (GE #TRK.886), [3H] Triolein (Perkin-Elmer NET-431), Butylated hydroxyl toluene (Aldrich, #D4740-4), DOPC (Sigma, #P6354), Sodium Bromide (Fisher scientific #S255-500), PEG 8000 (Fisher, #BP233-1), and human HDL (Intracel Corp #RP-036).
Both assays measure the transfer of [3H] cholesteryl oleate or [3H] triolein from exogenous LDL to HDL.
Radiolabeled donor particles are generated by first combining 100 μl of 200 μM butylated hydroxyl toluene in CHCl3, 216 μL of 21.57 mM DOPC in EtOH, and either 500 μCi [3H]-triolein (Perkin Elmer #NET-431) or 500 μCi [3H]-cholesteryl oleate (GE #TRK886) in a glass tube. Reagents are mixed, dried under nitrogen, and then resuspended in 2 mL of 50 mM Tris, 27 μM EDTA at pH 7.4. After a brief vortex, the solution is sonicated until clear and mixed with 20 mL of fresh human serum. The mixture is incubated overnight at 37° C. The [3H] labeled LDL substrate is separated at 1.063 g/ml density by sequential ultracentrifugal flotation in NaBr according to the method of Havel, Eder, et al., 1955, and Chapman, Goldstein, et al., 1981. Once isolated the particles are dialyzed 3× in CETP buffer (50 mM Tris, pH 7.4, 100 mM NaCl, 1 mM EDTA). Human HDL is purchased from Intracel and used as the acceptor particles.
Transfer assays are performed in a 96-well v-bottom polypropylene plate. For the RTA using recombinant CETP (2% RTA), an assay cocktail is prepared with the final concentrations 128 μg/mL HDL, 20 nM rCETP, 2% human serum, and 1×CETP buffer. 1 μL of each test compound diluted in DMSO is added to 47 μL of assay cocktail per well and incubated at 37° C. for 1 hour. To initiate the transfer reaction, 2 μL radiolabeled LDL is added. After an additional 60 min of incubation at 37° C., the transfer action is terminated by precipitation of LDL with an equal volume of 20% W/V PEG 8000. The plates are centrifuged at 2000 rpm for 30 minutes at 4° C. A 40 μL aliquot of the HDL-containing supernatant is transferred to a Packard Optiplate™ with 200 μL of MicroScint™ 20. After mixing, plates are counted by liquid scintillation. Counts present in the supernatant for blanks (wells containing only HDL acceptor, CETP buffer and DMSO) are subtracted from those containing test compounds and used to correct for non-specific transfer.
For the transfer assay using endogenous CETP from serum (95% RTA), the same procedure is used except that human serum is added such that a final concentration of serum of 95% of the total assay volume is achieved, yielding a concentration of approximately 15 nM endogenous CETP in the assay. This is then combined with HDL and CETP buffer and the reaction proceeds as above and is terminated as described.
Comparison of the counts of samples with inhibitors to an uninhibited (DMSO only) positive control yield a percent inhibition. A plot of percent inhibition vs. log of inhibitor concentration, fit to a Sigmoidal 4 parameter equation is used to calculate IC50.
Starting materials are commercially available or are made using known procedures or as shown below. The examples may be synthesized according to the general schemes provided below and through the synthetic intermediates that are described. […] When compounds of Formula I or Formula II are mentioned herein, such compounds include compounds defined generically by Formula I or II and also the specific examples disclosed herein.

Chain of endogenous CETP from serum (P11597 18-493 limits assumed): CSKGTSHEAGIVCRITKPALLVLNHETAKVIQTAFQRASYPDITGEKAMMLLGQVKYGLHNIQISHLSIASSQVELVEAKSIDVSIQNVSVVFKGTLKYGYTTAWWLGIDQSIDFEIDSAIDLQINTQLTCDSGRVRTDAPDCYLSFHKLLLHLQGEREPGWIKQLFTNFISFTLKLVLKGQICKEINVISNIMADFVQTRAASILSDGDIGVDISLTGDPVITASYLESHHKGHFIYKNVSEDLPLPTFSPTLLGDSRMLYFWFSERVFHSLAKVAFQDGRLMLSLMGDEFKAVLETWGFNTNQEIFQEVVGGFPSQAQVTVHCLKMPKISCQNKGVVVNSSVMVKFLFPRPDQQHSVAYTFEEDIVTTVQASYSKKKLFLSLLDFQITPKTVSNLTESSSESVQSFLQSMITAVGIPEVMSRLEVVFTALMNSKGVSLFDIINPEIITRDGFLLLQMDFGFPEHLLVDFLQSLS

Q: How did the pIC50 turn out when `COc1ccc([C@H]2C[C@H](CO)C2)cc1-c1ccc(C(F)(F)F)nc1CN1C(=O)O[C@H](c2cc(C(F)(F)F)cc(C(F)(F)F)c2)C12CC2` [Example 6, (7R)-7-[3,5-bis(trifluoromethyl)phenyl]-4-{[3-{5-[trans-3-(hydroxymethyl)cyclobutyl]-2-methoxyphenyl}-6-(trifluoromethyl)pyridin-2-yl]methyl}-6-oxa-4-azaspiro[2.4]heptan-5-one] was run?
A: The pIC50 was 5.73.

Q: How did the pIC50 turn out when `COc1ccc(-c2ccc(C(=O)O)cc2C)cc1-c1cnc(N(C)C)nc1CN1C(=O)O[C@H](c2cc(C(F)(F)F)cc(C(F)(F)F)c2)C12CC2` [Example 9, 3′-[4-({(7R)-7-[3,5-bis(trifluoromethyl)phenyl]-5-oxo-6-oxa-4-azaspiro[2.4]hept-4-yl}methyl)-2-(dimethylamino)pyrimidin-5-yl]-4′-methoxy-2-methylbiphenyl-4-carboxylic acid] was run?
A: The pIC50 was 7.26.

Same assay, conditions: generally RTA assay in 95% human serum; read-out: IC50

Q: How did the pIC50 turn out when `COc1ccc(-c2ccc(C(=O)O)cc2C)cc1-c1cnc(N2CCOCC2)nc1CN1C(=O)O[C@H](c2cc(C(F)(F)F)cc(C(F)(F)F)c2)C12CC2` [Example 16, 3′-[4-({(7R)-7-[3,5-bis(trifluoromethyl)phenyl]-5-oxo-6-oxa-4-azaspiro[2.4]hept-4-yl}methyl)-2-morpholin-4-ylpyrimidin-5-yl]-4′-methoxy-2-methylbiphenyl-4-carboxylic acid] was run?
A: Its pIC50 is 6.57.

Q: With `COc1ccc(-c2ccc(C(=O)O)cc2C)cc1-c1ccc(C(F)(F)F)nc1CN1C(=O)O[C@H](c2cc(C(F)(F)F)cc(C(F)(F)F)c2)C12CC2` [Example 2, 3′-[2-({(7R)-7-[3,5-bis(trifluoromethyl)phenyl]-5-oxo-6-oxa-4-azaspiro[2.4]hept-4-yl}methyl)-6-(trifluoromethyl)pyridine-3-yl]-4′-methoxy-2-methylbiphenyl-4-carboxylic acid] as the compound, how does the pIC50 read?
A: The pIC50 was 6.67.

Q: `COc1cc(F)c(C(C)C)cc1-c1cnc(N(C)C)nc1CN1C(=O)OC(c2cc(C(F)(F)F)cc(C(F)(F)F)c2)C12CCC2` (stereo not drawn) [Example 11, 8-[3,5-bis(trifluoromethyl)phenyl]-5-({2-(dimethylamino)-5[4-fluoro-2-methoxy-5-(1-methylethyl)phenyl]pyrimidin-4-yl}methyl)-7-oxa-5-azaspiro[3.4]octan-6-one] was tested. Which pIC50 did it give?
A: Its pIC50 is 6.50.

Q: How did the pIC50 turn out when `COC(=O)c1ccc(-c2ccc(OC)c(-c3cnc(SC)nc3CN3C(=O)O[C@H](c4cc(C(F)(F)F)cc(C(F)(F)F)c4)C34CC4)c2)c(C)c1` [Example 18, methyl 3′-[4-({(7R)-7-[3,5-bis(trifluoromethyl)phenyl]-5-oxo-6-oxa-4-azaspiro[2.4]hept-4-yl}methyl)-2-(methylsulfanyl)pyrimidin-5-yl]-4′-methoxy-2-methylbiphenyl-4-carboxylate] was run?
A: The pIC50 was 6.22.

Q: `COc1ccc(-c2ccc(C(=O)O)cc2C)cc1-c1cnc(N2CC(F)C2)nc1CN1C(=O)O[C@H](c2cc(C(F)(F)F)cc(C(F)(F)F)c2)C12CCC2` [Example 12, 3′-[4-({(8R)-8-[3,5-bis(trifluoromethyl)phenyl]-6-oxo-7-oxa-5-azaspiro[3.4]oct-5-yl}methyl)-2-(3-fluoroazetidin-1-yl)pyrimidin-5-yl]-4′-methoxy-2-methylbiphenyl-4-carboxylic acid] was tested. Which pIC50 did it give?
A: Its pIC50 is 7.14.

Q: `COc1cc(F)c(-c2ccc(C(=O)O)cc2C)cc1-c1ccc(C(F)(F)F)nc1CN1C(=O)O[C@H](c2cc(C(F)(F)F)cc(C(F)(F)F)c2)C12CC2` [Example 3, 5′-[2-({(7R)-7-[3,5-bis(trifluoromethyl)phenyl]-5-oxo-6-oxa-4-azaspiro[2.4]hept-4-yl}methyl)-6-(trifluoromethyl)pyridin-3-yl]-2′-fluoro-4′-methoxy-2-methylbiphenyl-4-carboxylic acid] was tested. Which pIC50 did it give?
A: The pIC50 was 6.92.

Q: How did the pIC50 turn out when `COc1ccc(CCC(=O)O)cc1-c1ccc(C(F)(F)F)nc1CN1C(=O)O[C@H](c2cc(C(F)(F)F)cc(C(F)(F)F)c2)C12CC2` [Example 5, 3-{3-[2-({(7R)-7-[3,5-bis(trifluoromethyl)phenyl]-5-oxo-6-oxa-4-azaspiro[2.4]hept-4-yl}methyl)-6-(trifluoromethyl)pyridin-3-yl]-4-methoxyphenyl}propanoic acid] was run?
A: Its pIC50 is 5.47.
